Assay results: patent US11497212B2, “Substituted thiophenyl uracils, salts thereof and the use thereof as herbicidal agents” (Syngenta Crop Protection AG, priority 2017, dated 2022)

Columns and labels:
Format in all cases: in vivo
Zea mays [1] = assay: Crop compatibility pre-emergence (greenhouse pot trial); details: application rate 20 g/ha, effect vs untreated controls
Text: (§1) Seeds of mono- and dicotyledonous weeds and crop plants were laid out in plastic or organic plant pots and covered with soil. The compounds of the invention formulated in the form of wettable powders (WP) or emulsion concentrates (EC) were then applied to the surface of the covering soil as an aqueous suspension or emulsion with addition of 0.5% additive at a water application rate equivalent to 600 L/ha. After the treatment, the pots were placed in a greenhouse and kept under good growth conditions for the test plants. After about 3 weeks, the efficacy of the preparations was scored visually as a percentage by comparison with untreated controls. For example, 100% efficacy=plants have died, 0% efficacy=like control plants.
Crop compatibilities were also scored correspondingly.
The effects observed are reported here on selected crop plants by comparison with the untreated controls (values in %).

Matricaria inodora [2] = assay: Herbicidal action post-emergence (greenhouse pot trial); details: application rate 80 g/ha, scored visually after about 3 weeks vs untreated controls
Outline: (§2)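 Post-emergence spray at one-leaf stage (2–3 wk after sowing, sandy loam, greenhouse); WP/EC in water + 0.5% additive; 600 L/ha; rate 80 g/ha or less. Visual % efficacy at ~3 wk vs untreated (100 = dead).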

Setaria viridis [3] = assay: as above; details: application rate 80 g/ha, scored visually after about 3 weeks vs untreated controls
Outline: as §2

Stellaria media [4] = assay: as above; details: application rate 80 g/ha, scored visually after about 3 weeks vs untreated controls
Outline: as §2

Pharbitis purpurea [5] = assay: as above
Outline: as §2

Viola tricolor [6] = assay: as above
Outline: as §2

Amaranthus retroflexus [7] = assay: as above; details: scored visually after about 3 weeks vs untreated controls
Outline: as §2

Veronica persica [8] = assay: as above
Outline: as §2

Polygonum convolvulus = assay: as above; details: application rate 80 g/ha, scored visually after about 3 weeks vs untreated controls
Outline: as §2

Abutilon theophrasti [9] = assay: as above; details: scored visually after about 3 weeks vs untreated controls
Outline: as §2

Matricaria inodora [10] = assay: Herbicidal action pre-emergence (greenhouse pot trial); details: application rate 320 g/ha, scored after about 3 weeks
Text: as §1, with “control plants. Tables B1 to B16 below show the efficacies of selected compounds of the general formula (I) according to tables I.1 to I.60 on various harmful plants and an application rate corresponding to 320 g/ha or lower that were obtained by the aforementioned trial method.” for “control plants.”

Alopecurus myosuroides = assay: as above; details: application rate 320 g/ha, scored after about 3 weeks
Text: as §1, with “control plants. Tables B1 to B16 below show the efficacies of selected compounds of the general formula (I) according to tables I.1 to I.60 on various harmful plants and an application rate corresponding to 320 g/ha or lower that were obtained by the aforementioned trial method.” for “control plants.”

Setaria viridis [11] = assay: as above; details: application rate 320 g/ha, scored after about 3 weeks
Text: as §1, with “control plants. Tables B1 to B16 below show the efficacies of selected compounds of the general formula (I) according to tables I.1 to I.60 on various harmful plants and an application rate corresponding to 320 g/ha or lower that were obtained by the aforementioned trial method.” for “control plants.”

Echinochloa crus-galli = assay: as above; details: application rate 320 g/ha, scored after about 3 weeks
Text: as §1, with “control plants. Tables B1 to B16 below show the efficacies of selected compounds of the general formula (I) according to tables I.1 to I.60 on various harmful plants and an application rate corresponding to 320 g/ha or lower that were obtained by the aforementioned trial method.” for “control plants.”

Hordeum murinum = assay: as above; details: application rate 320 g/ha
Text: as §1, with “control plants. Tables B1 to B16 below show the efficacies of selected compounds of the general formula (I) according to tables I.1 to I.60 on various harmful plants and an application rate corresponding to 320 g/ha or lower that were obtained by the aforementioned trial method.” for “control plants.”

Stellaria media [12] = assay: as above; details: application rate 320 g/ha, scored after about 3 weeks
Text: as §1, with “control plants. Tables B1 to B16 below show the efficacies of selected compounds of the general formula (I) according to tables I.1 to I.60 on various harmful plants and an application rate corresponding to 320 g/ha or lower that were obtained by the aforementioned trial method.” for “control plants.”

Pharbitis purpurea [13] = assay: as above; details: application rate 320 g/ha
Text: as §1, with “control plants. Tables B1 to B16 below show the efficacies of selected compounds of the general formula (I) according to tables I.1 to I.60 on various harmful plants and an application rate corresponding to 320 g/ha or lower that were obtained by the aforementioned trial method.” for “control plants.”

Avena fatua = assay: as above; details: application rate 320 g/ha
Text: as §1, with “control plants. Tables B1 to B16 below show the efficacies of selected compounds of the general formula (I) according to tables I.1 to I.60 on various harmful plants and an application rate corresponding to 320 g/ha or lower that were obtained by the aforementioned trial method.” for “control plants.”

Viola tricolor [14] = assay: as above; details: application rate 320 g/ha, scored after about 3 weeks
Text: as §1, with “control plants. Tables B1 to B16 below show the efficacies of selected compounds of the general formula (I) according to tables I.1 to I.60 on various harmful plants and an application rate corresponding to 320 g/ha or lower that were obtained by the aforementioned trial method.” for “control plants.”

Lolium rigidum = assay: as above; details: application rate 320 g/ha
Text: as §1, with “control plants. Tables B1 to B16 below show the efficacies of selected compounds of the general formula (I) according to tables I.1 to I.60 on various harmful plants and an application rate corresponding to 320 g/ha or lower that were obtained by the aforementioned trial method.” for “control plants.”

Amaranthus retroflexus [15] = assay: as above; details: application rate 320 g/ha, scored after about 3 weeks
Text: as §1, with “control plants. Tables B1 to B16 below show the efficacies of selected compounds of the general formula (I) according to tables I.1 to I.60 on various harmful plants and an application rate corresponding to 320 g/ha or lower that were obtained by the aforementioned trial method.” for “control plants.”

Veronica persica [16] = assay: as above; details: application rate 320 g/ha
Text: as §1, with “control plants. Tables B1 to B16 below show the efficacies of selected compounds of the general formula (I) according to tables I.1 to I.60 on various harmful plants and an application rate corresponding to 320 g/ha or lower that were obtained by the aforementioned trial method.” for “control plants.”

Abutilon theophrasti [17] = assay: as above; details: application rate 320 g/ha, scored after about 3 weeks
Text: as §1, with “control plants. Tables B1 to B16 below show the efficacies of selected compounds of the general formula (I) according to tables I.1 to I.60 on various harmful plants and an application rate corresponding to 320 g/ha or lower that were obtained by the aforementioned trial method.” for “control plants.”

Oryza sativa = assay: Crop compatibility post-emergence (greenhouse pot trial); details: application rate 20 g/ha
Outline: (§3)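 Crop seeds sown in sandy loam and grown in the greenhouse 2 to 3 weeks were treated at the one-leaf stage. WP or EC formulations were sprayed as aqueous suspension/emulsion with 0.5% additive at 600 L/ha. Damage was scored visually about 3 weeks later versus untreated controls (0% = like control, 100% = dead).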

Triticum aestivum = assay: as above
Outline: as §3

Zea mays [18] = assay: as above
Outline: as §3

Glycine max = assay: as above; details: application rate 20 g/ha
Outline: as §3

C=CCN(C(=O)C(C)Sc1cc(-n2c(=O)cc(C(F)(F)F)n(C)c2=O)c(F)cc1Cl)C(C)COC (centres unmarked) [I.1-335]
10%: Oryza sativa (Efficacy in %) (Oryza sativa) | Zea mays (Efficacy in %) (Zea mays [18]; application rate 80 g/ha)
100%: Matricaria inodora (Efficacy in %) (Matricaria inodora [2]) | Setaria viridis (Efficacy in %) (Setaria viridis [3]) | Stellaria media (Efficacy in %) (Stellaria media [4]) | Pharbitis purpurea (Efficacy in %) (Pharbitis purpurea [5]; application rate 80 g/ha) | Viola tricolor (Efficacy in %) (Viola tricolor [6]; application rate 80 g/ha) | Amaranthus retroflexus (Efficacy in %) (Amaranthus retroflexus [7]; application rate 80 g/ha) | Veronica persica (Efficacy in %) (Veronica persica [8]; application rate 80 g/ha) | Polygonum convolvulus (Efficacy in %) (Polygonum convolvulus) | Abutilon theophrasti (Efficacy in %) (Abutilon theophrasti [9]; application rate 80 g/ha) | Matricaria inodora (Efficacy in %) (Matricaria inodora [10]) | Setaria viridis (Efficacy in %) (Setaria viridis [11]) | Echinochloa crus-galli (Efficacy in %) (Echinochloa crus-galli) | Stellaria media (Efficacy in %) (Stellaria media [12]) | Pharbitis purpurea (Efficacy in %) (Pharbitis purpurea [13]) | Avena fatua (Efficacy in %) (Avena fatua) | Viola tricolor (Efficacy in %) (Viola tricolor [14]) | Lolium rigidum (Efficacy in %) (Lolium rigidum) | Amaranthus retroflexus (Efficacy in %) (Amaranthus retroflexus [15]) | Veronica persica (Efficacy in %) (Veronica persica [16]) | Abutilon theophrasti (Efficacy in %) (Abutilon theophrasti [17])
20%: Zea mays (Efficacy in %) (Zea mays [1]) | Triticum aestivum (Efficacy in %) (Triticum aestivum; application rate 80 g/ha)
90%: Alopecurus myosuroides (Efficacy in %) (Alopecurus myosuroides) | Hordeum murinum (Efficacy in %) (Hordeum murinum)

Cc1c(C(F)(F)F)n(C)c(=O)n(-c2cc(SC(CC(C)C)C(=O)OCC3CCCCO3)c(Cl)cc2F)c1=O (centres unmarked) [I.14-91]
20%: Triticum aestivum (Efficacy in %) (Triticum aestivum; application rate 20 g/ha) | Glycine max (Efficacy in %) (Glycine max) | Zea mays (Efficacy in %) (Zea mays [18]; application rate 20 g/ha)
100%: Viola tricolor (Efficacy in %) (Viola tricolor [6]; application rate 20 g/ha) | Amaranthus retroflexus (Efficacy in %) (Amaranthus retroflexus [7]; application rate 20 g/ha) | Veronica persica (Efficacy in %) (Veronica persica [8]; application rate 20 g/ha) | Abutilon theophrasti (Efficacy in %) (Abutilon theophrasti [9]; application rate 20 g/ha)
0%: Oryza sativa (Efficacy in %) (Oryza sativa)
80%: Pharbitis purpurea (Efficacy in %) (Pharbitis purpurea [5]; application rate 20 g/ha)
